{"source": "patent US7375086B2", "about": "“Modulators of Nod2 signaling” (The Regents of the University of Michigan, priority 2000, dated 2008)", "key": {"[1]": {"tested_on": "Nod2-Fpk3", "assay": "Enforced oligomerization of Fpk3-Nod2 chimeric proteins, NF-κB reporter in HEK293T cells", "format": "cell-based, human", "protocol": "HEK293T cells were transfected with of control plasmid (−) or plasmids producing the indicated Myc-tagged Fpk3Nod2 proteins. Extracts from equal number of cells was immunoprecipitated and immunoblotted with rabbit anti-Myc antibody. […] 2×10^5 HEK293T cells were transfected with 1 ng of the indicated plasmids in the presence of pBVIx-luc and pEF-BOS-β-gal. 8 hr post-transfection, cells were treated with 500 nM AP1510 (black bars) or left untreated (white bars). 24 hr post-transfection, the κB-dependent transcription was determined as described below. Values represent mean ±SD of triplicate cultures.\nIn the case of Nod1, its oligomerization appears to promote proximity of RICK and NF-κB activation. To test a similar role for Nod2, plasmids were constructed to express chimeric proteins in which wt or Nod2 mutants were fused to three tandem repeated dimerization domains of Fpk (Fpk3), which can be oligomerized by the cell-permeable ligand AP1510 (MacCorkle et al., Proc. Nat. Acad. Sci. U. S. A. 95: 3655-3660 [1998]). […] Because wt Nod2 alone induces NF-KB activation, we expressed suboptimal amounts of the chimeric Fpk3-Nod2 constructs into HEK293T cells. […] Similarly, NF-κB activation induced by a Nod2 P-loop mutant lacking the LRRs (K305RALRR), which have reduced ability to induce NF-κB activation, was enhanced by enforced oligomerization (FIG. 7C). […]"}, "[2]": {"tested_on": "NF-κB", "assay": "NF-κB binding activity by EMSA in nuclear extracts of PBMNC", "format": "cell-based, human", "conditions": "PBMNC nuclear extracts, EMSA", "protocol": "FIGS. 20C and D show PBMNC analyzed for expression of IL-1β (C) and A1 (D) transcripts by quantitative RT-PCR.\nGenotyping was performed using a ddNTP primer extension system. Nuclear extracts from LPS-stimulated cells were pre-incubated with antibody specific for p50 subunit of NF-κB to monitor the size of the NF-κB-DNA complex. cDNA was amplified with specific primers for human IL-1β, glyceraldehyde-3-phosphate-dehydrogenase (GAPDH) as described (5) and A1 (5′-[…]-3′ (SEQ ID NO: 53) and 5′-[…]-3′ (SEQ ID NO:54)). The levels of IL-1β and A1 transcripts normalized to that of GAPDH were expressed relative to those in untreated cells that were considered as baseline. Specificity of the desired PCR products was determined by melting curve analysis. Histograms represent the mean ±S.D. of triplicate analyses.\nThe NOD2 variants associated with Crohn's disease, R702W, G908R and L1007fsinsC, occur on the same haplotype background, which includes the common P268S polymorphism (Hugot et al., Nature 411:599 [2001]; Ogura et al., Nature 411:603 [2001]). To compare the ability of normal and mutant NOD2 proteins to induce NF-κB activity in response to MDP, the NOD2 proteins were expressed in cells and evaluated in a functional assay. […] The role of NOD2 in the recognition of MDP by primary cells from normal and Crohn's disease patients was next determined. A panel of healthy and Crohn's disease individuals were genotyped for the disease-associated NOD2 alleles and two individuals (one without clinical evidence of disease and one individual with Crohn's disease) who were homozygous for the loss-of-function L1007fsinsC mutation were identified (FIG. 20A). The identification of apparently healthy individuals homozygous for L1007fsinsC is expected in that the penetrance of the L1007fsinsC mutation is not complete (Hugot et al., supra; Ogura et al., supra; Hampe et al., Lancet 357:1925 [2001]; Ahmad et al., Gastroenterology 122:854 [2002]). Peripheral blood mononuclear cells (PBMNC) that are known to express NOD2 were isolated, incubated with MDP or LPS and NF-κB activation was assessed in nuclear extracts by an electrophoretic mobility shift assay (EMSA)."}, "[3]": {"target": "T1, Nod2 (Homo sapiens, UniProt Q9HC29, R703H)", "T1 construct": "ligated to generate an unique cDNA containing the entire open reading frame of Nod2; expressed in transfected cells; host or cells: HEK293T", "T1 sequence (Q9HC29 whole entry R703H)": "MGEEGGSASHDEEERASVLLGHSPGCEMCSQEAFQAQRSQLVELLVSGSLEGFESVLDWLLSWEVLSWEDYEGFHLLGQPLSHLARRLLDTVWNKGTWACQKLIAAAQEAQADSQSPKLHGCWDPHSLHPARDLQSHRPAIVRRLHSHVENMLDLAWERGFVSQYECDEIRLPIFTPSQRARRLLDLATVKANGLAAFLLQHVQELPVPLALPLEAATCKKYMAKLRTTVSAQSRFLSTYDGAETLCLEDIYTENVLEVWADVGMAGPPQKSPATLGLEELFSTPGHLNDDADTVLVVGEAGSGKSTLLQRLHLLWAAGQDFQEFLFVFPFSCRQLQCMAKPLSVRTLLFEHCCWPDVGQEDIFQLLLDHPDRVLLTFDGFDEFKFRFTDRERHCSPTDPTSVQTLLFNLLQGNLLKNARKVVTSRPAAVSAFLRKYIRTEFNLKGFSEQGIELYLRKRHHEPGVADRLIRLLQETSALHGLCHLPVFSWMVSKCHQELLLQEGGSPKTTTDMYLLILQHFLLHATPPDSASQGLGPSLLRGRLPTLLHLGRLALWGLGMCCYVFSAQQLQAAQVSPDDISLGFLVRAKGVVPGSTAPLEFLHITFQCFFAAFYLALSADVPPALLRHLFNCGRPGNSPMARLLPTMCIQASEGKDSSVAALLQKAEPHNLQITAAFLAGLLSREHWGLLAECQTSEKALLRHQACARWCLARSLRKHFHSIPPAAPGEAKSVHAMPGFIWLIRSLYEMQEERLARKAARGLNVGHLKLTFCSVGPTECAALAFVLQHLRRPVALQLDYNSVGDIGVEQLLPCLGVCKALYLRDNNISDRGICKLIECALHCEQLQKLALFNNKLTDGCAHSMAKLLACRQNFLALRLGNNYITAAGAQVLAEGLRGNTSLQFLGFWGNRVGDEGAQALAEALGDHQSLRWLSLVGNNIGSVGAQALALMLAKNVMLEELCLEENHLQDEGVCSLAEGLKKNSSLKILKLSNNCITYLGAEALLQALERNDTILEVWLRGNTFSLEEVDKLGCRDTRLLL", "assay": "NF-κB reporter assay in HEK293T/HEK293 cells expressing Nod2", "format": "cell-based", "conditions": "100 ng/ml (FIG. 18C)"}, "[4]": {"tested_on": "NF-κB", "assay": "NF-κB luciferase reporter assay in HEK293T cells transfected with control plasmid", "format": "cell-based, human", "protocol": "Induction of NF-κB activation was determined in triplicate cultures of HEK293T cells transfected with 30 ng of Nod2 plasmid (open bars) or stimulated with 10 ng/ml of TNFα for 4 h (closed bars) and 70 ng of I-κBα S32A/S36A, IKKα K44A, IKKβ K44A, RICK (406-540) or RIP (558-671) expression plasmid in the presence of pBVIx-Luc and pEF-BOS-β-gal. Results are presented as a percent of values obtained with Nod2 and control plasmid. In the experiment shown, Nod2 and TNFα induced 58±8-fold and 14±1-fold activation of NF-κB, respectively. Values represent mean ±SD of triplicate cultures. […] Induction of NF-κB activation was determined from triplicate cultures of I×10^5 HEK293T cells co-transfected with the indicated plasmids and pBVIx-Luc in the presence of control plasmid pEF-BOS-β-gal. […]\n8 hr post-transfection, cells were treated with 10 μg/ml of each pathogen product, lipoteichoic acid (LTA) or peptidoglycan (PGN) from Staphylococcus aureus, lipopolysaccharide (LPS) from Escherichia coli 055:B5, mannan from Candida albicans 20A, synthetic soluble bacterial lipoprotein (SBLP) or left untreated (Control). 24 hr post-transfection, κB-dependent transcription was determined by luciferase activity relative and values normalized to β-galactosidase in triplicate cultures. […] Twenty-four hr post-transfection, κB-dependent transcription was determined as described above. […]"}, "[5]": {"target": "T2, TLR2 (Homo sapiens, UniProt O60603)", "T2 construct": "expressed in transfected cells", "T2 sequence (O60603 21-784, species assumed)": "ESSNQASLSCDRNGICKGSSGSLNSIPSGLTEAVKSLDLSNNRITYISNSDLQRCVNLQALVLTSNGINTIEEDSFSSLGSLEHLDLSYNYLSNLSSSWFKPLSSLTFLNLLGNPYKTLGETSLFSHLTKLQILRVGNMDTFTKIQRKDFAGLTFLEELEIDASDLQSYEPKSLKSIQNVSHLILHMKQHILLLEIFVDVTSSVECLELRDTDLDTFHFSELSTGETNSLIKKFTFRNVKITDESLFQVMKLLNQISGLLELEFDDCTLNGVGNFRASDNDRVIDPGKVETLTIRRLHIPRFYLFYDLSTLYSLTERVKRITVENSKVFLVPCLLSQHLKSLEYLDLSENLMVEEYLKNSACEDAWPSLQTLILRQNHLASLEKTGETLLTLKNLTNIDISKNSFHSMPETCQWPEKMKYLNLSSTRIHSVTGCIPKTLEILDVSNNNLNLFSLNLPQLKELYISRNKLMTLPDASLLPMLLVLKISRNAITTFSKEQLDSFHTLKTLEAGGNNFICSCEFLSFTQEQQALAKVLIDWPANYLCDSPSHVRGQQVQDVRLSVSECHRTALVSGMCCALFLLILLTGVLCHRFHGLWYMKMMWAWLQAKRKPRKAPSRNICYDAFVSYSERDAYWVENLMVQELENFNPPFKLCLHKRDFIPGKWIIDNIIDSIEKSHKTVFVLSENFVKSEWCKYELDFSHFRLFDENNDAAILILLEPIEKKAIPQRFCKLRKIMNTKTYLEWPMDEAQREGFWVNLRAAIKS", "assay": "NF-κB reporter assay in HEK293 cells stably transfected with TLR2", "format": "cell-based", "conditions": "MDP 100 ng/ml, sBLP 1000 ng/ml", "protocol": "Molecules with two copies (2mer) or four copies (4mer) of GlcNAc-MurNAc with attached L-Ala-D-isoGln and their counterparts lacking dipeptide (2mer-aa, 4mer-aa) were synthesized as described (Inamura et al., Tetrahedron Lett. 42:7613 [2001]). Eight hours post-transfection, the indicated amount of each compound was added to the cells and the ability of each compound to activate NF-κB was determined as above. The ability of MDP (100 ng/ml) and sBLP (1000 ng/ml) to activate NF-κB was determined by transfection of 0.3 ng pcDNA3-Nod2 (Nod2) or control plasmid (−) into HEK293 cells or in HEK293 cells stably transfected with TLR2 (TLR2) or with control plasmid (−) and reporter pBxIV-luc and pEF-BOS-β-gal plasmids. Values represent the mean of normalized data ±S.D. of triplicate cultures."}, "[6]": {"tested_on": "NF-κB", "assay": "NF-κB reporter assay in parental Rat1 fibroblasts", "format": "cell-based, rat", "protocol": "Induction of NF-κB activation was determined in triplicate cultures of HEK293T cells transfected with 30 ng of Nod2 plasmid (open bars) or stimulated with 10 ng/ml of TNFα for 4 h (closed bars) and 70 ng of I-κBα S32A/S36A, IKKα K44A, IKKβ K44A, RICK (406-540) or RIP (558-671) expression plasmid in the presence of pBVIx-Luc and pEF-BOS-β-gal. Results are presented as a percent of values obtained with Nod2 and control plasmid. In the experiment shown, Nod2 and TNFα induced 58±8-fold and 14±1-fold activation of NF-κB, respectively. Values represent mean ±SD of triplicate cultures. […] Induction of NF-κB activation was determined from triplicate cultures of I×10^5 HEK293T cells co-transfected with the indicated plasmids and pBVIx-Luc in the presence of control plasmid pEF-BOS-β-gal. Values represent mean ±SD of triplicate cultures.\nNF-κB activation assays. NF-κB activation assays were performed as described (Inohara et al., [1999] supra, Inohara et al., [2000], supra). […] 24 hr post-transfection, cell extracts were prepared and its relative luciferase activity was measured as described (Inohara et al., [1999] supra, Inohara et al., [2000], supra). […]"}}, "data": [{"compound": "CCC(C)(C)C(=O)C(=O)N1CCCC[C@H]1C(=O)O[C@H](CCc1ccc(OC)c(OC)c1)c1cccc(OCC(=O)NCCNC(=O)COc2cccc([C@@H](CCc3ccc(OC)c(OC)c3)OC(=O)[C@@H]3CCCCN3C(=O)C(=O)C(C)(C)CC)c2)c1", "note": "[AP1510]", "values": [{"measurement": "NF-κB activation by Nod2-Fpk3 upon ligand", "setting": "[1]; 500 nM AP1510, suboptimal amounts (1 ng) of plasmid", "result": "induced NF-KB activation in a ligand-dependent manner"}, {"measurement": "NF-κB activation by Nod2-Fpk3 construct lacking the LRRs", "setting": "[1]; 500 nM AP1510 or untreated", "result": "induced NF-κB activation in the absence and presence of AP1510"}]}, {"compound": "Cc1ccc(S(=O)(=O)/C=C/C#N)cc1", "note": "[Bay11-7082]", "values": [{"measurement": "inhibition of the DNA binding complex induced by MDP", "setting": "[2]", "result": "inhibited"}]}, {"compound": "CC(=O)NC1C(O)OC(CO)C(O)C1OC(C)C(=O)NC(C)C(=O)NC(CCC(=O)O)C(N)=O", "note": "[MurNAc-L-Ala-L-isoGln]", "values": [{"measurement": "ability to stimulate NOD2 (stereoselectivity)", "setting": "[3]", "result": "eliminated the ability of MDP to stimulate NOD2"}]}, {"compound": "PaM3CysSerLyS4 [SBLP]", "values": [{"measurement": "induction of NF-κB reporter gene activity", "setting": "[4]; HEK293T cells transfected with control plasmid, 10 μg/ml of each pathogen product", "result": "No significant induction of reporter gene activity"}, {"measurement": "TLR2-mediated cellular response (NF-κB)", "setting": "[5]", "result": "mediated a cellular response"}]}, {"compound": "TNFα", "values": [{"measurement": "activation of NF-κB", "setting": "[4]; HEK293T cells stimulated with 10 ng/ml of TNFα for 4 h", "result": "14±1", "unit": "fold"}, {"measurement": "NF-κB activity in parental Rat1 cells", "setting": "[6]", "result": "induced NF-κB activity"}]}]}
